Laboratory results from ChEMBL document CHEMBL5608234, “Heat Shock Protein 90 Interactome-Mediated Proteolysis Targeting Chimera (HIM-PROTAC) Degrading Glutathione Peroxidase 4 to Trigger Ferroptosis” (J Med Chem, 2024).
Activity calls are given as the source filed them. The rule behind the calls is not given here.

System: HT-1080
Test: HIM-PROTAC activity at GPX4/HSP90/E3 ligase in HSP90-knockdown human HT-1080 cells assessed as GPX4 degradation at 1 uM preincubated with KW-2478 for 3 hrs followed by compound addition and measured after 24 hrs by Western blotting analysis
Format: cell-based

`COc1c(C)cnc(Cn2cnc3c(NCCC4CCN(C(=O)Cn5cc(COc6ccc(N(C(=O)CCl)C(C(=O)NCCc7ccccc7)c7cccs7)cc6Cl)nn5)CC4)nc(N)nc32)c1C` (stereo unspecified) was tested, and the Activity was “inactive”.
